≈ marks a conversion by molar mass, not a printed value.
tested on: opfGWT1 expressing yeast; test: Measurement of antimalarial agent activity using opfGWT1-expressing yeast (growth inhibition, MIC); format: cell-based; details: Saccharomyces cerevisiae, 48 h, read-out: MIC (μg/m1) opfGWT1 […]; minimum concentration at which turbidity (660 nm) was 0.1 or less; SD culture medium, 96 well plate, 30° C. for 2 days; final highest concentration 25 μg/ml
Protocol: Compounds having antimalarial activity were screened, using the opfGWT1 expressing yeast, which expresses the malaria protozoa GWT1 gene. The opfGWT1 expressing yeast was prepared according to the methods described in Example 1 to Example 3 of WO 2004/048567.
The test compound was serially diluted twice in SD culture medium (Sabouraud-dextrose culture medium) so that the final highest concentration was 25 μg/ml and dispensed into a 96 well plate so as to obtain 50 μl/well. An overnight culture solution of the opfGWT1 expressing yeast diluted to 1/1000 was added therein in the amount of 50 μl/well addition, the plate was incubated at 30° C. for 2 days, then turbidity at 660 nm was measured.

Question: `Nc1ncccc1C(=O)NCc1ccc(Cc2cccc(Cl)c2)s1` was tested. Which MIC did it give?
Answer: 12.5 µg/mL (≈ 34.9 µM)

Question: For `Nc1ncccc1C(=O)NCc1ccc(Cc2cccc(Cl)c2)o1` [Reference Example A-4, 2-Amino-N-(5-(3-chloro-benzyl)-furan-2-ylmethyl)-nicotinamide], which MIC is on record?
Answer: 6.25 µg/mL (≈ 18.3 µM)

Question: How did the MIC turn out when `Nc1ncccc1C(=O)NCc1ccc(Cc2cccc(F)c2)o1` [Reference Example A-6, 2-Amino-N-(5-(3-fluoro-benzyl)-furan-2-ylmethyl)-nicotinamide] was run?
Answer: 25 µg/mL (≈ 76.8 µM)

Question: For `Nc1ccc(C(=O)NCc2ccc(Oc3ccccc3)s2)c(N)n1` [Reference Example A-54, 2,6-diamino-N-(5-phenoxy-thiophene-2-ylmethyl)-nicotinamide], which MIC is on record?
Answer: 25 µg/mL (≈ 73.4 µM)

Question: With `Cc1cccc(Oc2ccc(CNC(=O)c3cccnc3N)s2)c1` [Reference Example A-64, 2-Amino-N-(5-m-tolyloxy-thiophen-2-ylmethyl)-nicotinamide] as the compound, how does the MIC read?
Answer: 12.5 µg/mL (≈ 36.8 µM)

Question: How did the MIC turn out when `Nc1ncccc1C(=O)NCc1ccc(Oc2ccccc2)s1` [Reference Example A-67, 2-Amino-N-(5-phenoxy-thiophen-2-ylmethyl)-nicotinamide] was run?
Answer: 12.5 µg/mL (≈ 38.4 µM)

Question: With `Nc1ncccc1C(=O)NCc1ccc(Oc2cccc(F)c2)s1` [Reference Example A-68, 2-Amino-N-(5-(3-fluoro-phenoxy)-thiophen-2-ylmethyl)-nicotinamide] as the compound, how does the MIC read?
Answer: 12.5 µg/mL (≈ 36.4 µM)

Question: Which MIC does the source give for `Nc1ncccc1C(=O)NCc1ccc(Oc2ccc(F)cc2)s1` [Reference Example A-69, 2-Amino-N-(5-(4-fluoro-phenoxy)-thiophen-2-ylmethyl)-nicotinamide] here?
Answer: 25 µg/mL (≈ 72.8 µM)

Question: With `Nc1ncccc1C(=O)NCc1cc(Oc2ccccc2)cs1` [Reference Example A-72, 2-Amino-N-(4-phenoxy-thiophen-2-ylmethyl)-nicotinamide] as the compound, how does the MIC read?
Answer: 12.5 µg/mL (≈ 38.4 µM)

Question: For `Nc1ncccc1C(=O)NCc1ccc(Oc2cccc(Cl)c2)s1` [Reference Example A-73, 2-Amino-N-(5-(3-chloro-phenoxy)-thiophen-2-ylmethyl)-nicotinamide], which MIC is on record?
Answer: 6.25 µg/mL (≈ 17.4 µM)

Question: With `CC(=O)c1ccc(C(=O)NCc2ccc(Oc3ccccc3)s2)c(N)n1` [Reference Example A-98, 6-Acetyl-2-amino-N-(5-phenoxy-thiophen-2-ylmethyl)-nicotinamide] as the compound, how does the MIC read?
Answer: 12.5 µg/mL (≈ 34 µM)

Question: How did the MIC turn out when `CCOCCNc1ccc(C(=O)NCc2ccc(Oc3ccccc3)s2)c(N)n1` [Reference Example A-105, 2-Amino-6-(2-ethoxy-ethylamino)-N-(5-phenoxy-thiophen-2-ylmethyl)-nicotinamide] was run?
Answer: 25 µg/mL (≈ 60.6 µM)

Question: With `COCc1ccc(C(=O)NCc2ccc(Oc3cccc(F)c3)s2)c(N)n1` [Reference Example A-123, 2-Amino-N-(5-(3-fluoro-phenoxy)-thiophen-2-ylmethyl)-6-methoxymethyl-nicotinamide] as the compound, how does the MIC read?
Answer: 25 µg/mL (≈ 64.5 µM)

Question: Which MIC does the source give for `C=Cc1ccc(C(=O)NCc2ccc(Oc3ccccc3)s2)c(N)n1` [Reference Example A-168, 2-Amino-N-(5-phenoxy-thiophen-2-ylmethyl)-6-vinyl-nicotinamide] here?
Answer: 12.5 µg/mL (≈ 35.6 µM)

Question: With `Nc1ccc(C(=O)NCc2ccc(OCc3cccc(Cl)c3)cc2)c(N)n1` [Reference Example A-173, 2,6-Diamino-N-(4-(3-chloro-benzyloxy)-benzyl)-nicotinamide] as the compound, how does the MIC read?
Answer: 12.5 µg/mL (≈ 32.6 µM)

Question: How did the MIC turn out when `Nc1nc(CCF)ccc1C(=O)NCc1ccc(Oc2ccccc2)s1` [Reference Example A-177, 2-Amino-6-(2-fluoro-ethyl)-N-(5-phenoxy-thiophen-2-ylmethyl)-nicotinamide] was run?
Answer: 25 µg/mL (≈ 67.3 µM)

Question: How did the MIC turn out when `CCCCOCc1ccc(CNC(=O)c2ccc(COC)nc2N)cc1` [Reference Example A-182] was run?
Answer: 6.25 µg/mL (≈ 17.5 µM)

Question: With `CCCCOc1ccc(CNC(=O)c2ccc(COC)nc2N)cc1` [Reference Example A-188, 2-Amino-N-(4-butoxy-benzyl)-6-methoxymethyl-nicotinamide] as the compound, how does the MIC read?
Answer: 6.25 µg/mL (≈ 18.2 µM)

Question: How did the MIC turn out when `O=C(NCc1ccc(Oc2cccc(F)c2)s1)c1ccc2ncccc2c1` [Reference Example E-65, Quinoline-6-carboxylic acid (5-(3-fluorophenoxy)thiophen-2-ylmethyl)amide] was run?
Answer: 25 µg/mL (≈ 66.1 µM)
